The record followed here is US5661001A, “High molecular weight desulphatohirudin” (Ciba-Geigy Corporation, priority 1993, dated 1997).

The target in one assay is α-thrombin (Homo sapiens, UniProt P00734). In words: antithrombin activity: inhibition of α-thrombin digesting Chromozym TH. The assay is classed as biochemical. Here is the method: The amino acid composition is determined by the dimethylaminoazobenzene sulfonyl (dabsyl) chloride method (Chang et al. Anal. Biochem. (1991), 197, 52-58.), which allows direct quantization of the disulfide content. The amino acid sequence was analyzed by an Applied Biosystem Inc. 470A protein sequencer. The antithrombin activity of desulphatohirudin derivatives was assessed by their ability to inhibit α-thrombin from digesting Chromozym TH (Boehringer Mannheim), using the described protocol (Stone et al. Biochemistry (1986), 25, 4622-4628; Chatrenet et al. J. Biol. Chem. (1992), 267, 3038-3043). The molecular weight of desulphatohirudin is […], determined by the laser desorption ionization mass spectrometry using a home-built instrument (Boernsen et al. Chimia (1990), 44, 412-416).

The test system of another assay is plasma APTT. In words: ex vivo plasma APTT after subcutaneous administration in the rat. Particulars: s.c. 1 ml/kg, dimer 4.5 mg/ml, HV1 3.0 mg/ml, mean±SEM, n=5. Here is the method: (APTT=activated partial thrombin time)
[Cys^33 ]HV1--[Cys^33 ]HV1 dimer is dissolved in saline to a concentration of 4.5 mg/ml and unmodified hirudin-monomer is dissolved in saline to a concentration of 3.0 mg/ml (these doses are chosen based on the in vitro results in order to achieve a similar effect on APTT at 1 h). Solutions are administered subcutaneously to rats (1 ml/kg). At various times after administration, blood (2 ml) is collected by cardiac puncture directly into one tenth volume trisodium titrate solution (3.8% w/v) and immediately mixed. The anticoagulated blood is centrifuged at 2500 g for 20 min to obtain platelet free plasma.
Plasma samples are assayed for APTT using standard methods on the Instrumentation Laboratory ACL 300R coagulometer. The method for APTT determination utilizes the Instrumentation Laboratory ellagic acid test kit--plasma (50 μl) is incubated with ellagic acid activating reagent (50 μl) at 37° C. for 5 min prior to the addition of calcium chloride solution (50 μl of 25 mM solution) and the time taken for the plasma clot is recorded automatically, the end point being determined optically by the light scattered when the fibrin network formed (see table 1).
The results are expressed as a multiple of the means control APTT value and presented as mean±standard error of the mean (n=5).

Another assay addresses human thrombin (Homo sapiens, UniProt P00734). In words: kinetic parameters for inhibition of human thrombin (progress-curve experiments, D-Phe-pipecolyl-Arg-p-nitroanilide). In kind it is biochemical. The following applies: substrate 100 μM, enzyme 20 pM; weighted means of two determinations. The protocol: The kinetic parameters of the [Cys^33 ]HV1--[Cys^33 ]HV1 dimer are determined from progress-curve experiments as described by Stone et al. Biochemistry (1986), 25, 4622-4628 and Braun et al. Biochemistry, (1988), 27, 6517-6522. For each determination, the formation of p-nitroaniline from D-Phe-pipecolyl-Arg-p-nitroanilide is monitored in six assays, one in absence of inhibitor and the others with different concentrations of inhibitor ranging from 10 to 60 pM for the [Cys^33 ]HV1--[Cys^33 ]HV1 dimer. The substrat concentration is 100 μM and the enzyme concentration is 20 pM.
The kinetic parameters are determined twice and values given in table 2 represent the weightened means of the estimates.

On to “HV1: unmodified desulphatohirudin variant 1 monomer, used as comparator”, for which the “thrombin inhibition (inhibitory activity, equal weight basis)” value with α-thrombin (1 nM desulphatohirudin, 1.5 nM α-thrombin) was 82±5%. Besides, the “APTT as multiple of the mean control APTT value” in the assay on plasma APTT (0 hours) is given as 1.00 ± 0.02 multiple of control APTT; with plasma APTT (1 hour), 2.44 ± 0.07 multiple of control APTT; in the assay on plasma APTT (4 hours), 1.43 ± 0.05 multiple of control APTT; in the assay with plasma APTT (6 hours) it was 0.95 ± 0.02 multiple of control APTT. Also, the “10^8 k1” value in the assay with human thrombin worked out at 1.37 ± 0.03 M^-1 s^-1.
On to “Cys^33 monomer: mutant of recombinant desulphatohirudin HV1 with cysteine replacing aspartic acid at position 33 (SEQ ID NO: 8)”, for which the “potency of thrombin inhibition, monomer versus dimer” value with α-thrombin (comparison of Cys33 monomer and dimer) is “nearly indistinguishable (±3%)”.
